{
  "source": "patent US20220064238A1",
  "about": "“Methods And Compositions For Modifying Transcription Factor Activity by Targeting The Human Mediator Complex Using Cell Penetrating Memetic Peptides And Methods of Treating Cancer Using The Same” (The Regents of the University of Colorado, a body corporate, priority 2020, published 2022)",
  "key": {"basal transcription": {"test_system": "basal transcription", "assay": "In vitro transcription on naked DNA templates, basal (no activator)", "format": "biochemical, human", "settings": "no GAL4-p53, naked DNA templates", "excerpt": "To screen peptides for the ability to selectively block p53-dependent transcription, we required an assay that enabled p53-dependent activation but that could also support basal (i.e. activator-independent) transcription. The present inventors had previously established an in vitro transcription assay (using highly purified human factors (FIG. 1A). A key feature of this assay was that both activated and basal transcription could be reconstituted on naked DNA templates (i.e. DNA templates not assembled into chromatin). To adapt this assay for purposes of measuring basal vs. p53-activated transcription, we generated templates with Gal4 DNA binding sites upstream of the adenovirus major late promoter sequence (FIG. 5A, B). Upon titration of a Gal4 DNA Binding Domain (DBD)-p53 Activation Domain (AD; residues 1-70) fusion protein into this system, we observed pol II-dependent transcription that was dependent on p53AD and Mediator (FIG. 5C). Reactions containing Gal4-p53AD generally produced about two- to four-fold more transcripts compared to reactions with no activator (FIG. 5C). Because experiments without Gal4-p53AD produced a low level of “basal” transcription that could be quantitated, this system allowed assessment of both p53-activated and basal transcription. […]"}, "[1]": {"test_system": "pol II occupancy at the p21 locus", "assay": "ChIP of RNA polymerase II occupancy at CDKN1A (p21)", "format": "cell-based", "settings": "3 h post-Nutlin, Ser5-phosphorylated pol II ChIP", "excerpt": "FIGS. 13A-B. Summary of ChIP experiments, showing that RNA polymerase II occupancy at the p53 target gene CDKN1A (p21) is reduced in cells treated with the bivalent peptide (peptide). A) Time course following Nutlin induction, to determine ideal time point to probe pol II occupancy at the p21 locus. […] However, pol II occupancy is reduced in cells treated with the bivalent peptide. […] Pol II phosphorylated at serine-5 of its C-terminal domain was used for ChIP analysis, because this is a proxy for initiating pol II at gene promoters (start sites). Data represent biological triplicates. Similar results were observed genome-wide, using ChIP-seq, although the timing of induction across p53 target genes will vary (data not shown)."}, "[2]": {"test_system": "p53 target genes in HCT116 cells", "assay": "RNA-Seq / GSEA in HCT116 cells, p53 pathway genes", "format": "cell-based, human", "experimental": "To circumvent this issue, we used a well-tested electroporation protocol to enhance cell uptake of the bivalent peptide (see Methods). HCT116 cells were evaluated either in the presence of bivalent peptide or vehicle (water), with or without Nutlin-3a (FIG. 3A, B). Nutlin-3a is a small molecule that activates and stabilizes p53 by inhibiting MDM2, a repressor of p53. […] After 3 h Nutlin-3a treatment (or DMSO control, ±bivalent peptide), nuclear RNA was isolated and biological replicate RNA-Seq libraries were prepared (FIG. 9A; Table 1).\nA confounding issue with these experiments was that cellular uptake of the bivalent peptide could not be accurately measured and could potentially vary from experiment-to-experiment. To assess this possibility more thoroughly, we completed an additional round of RNA-Seq experiments in control vs. Nutlin-treated HCT116 cells (FIG. 9B; Table 1). These additional experiments (RNA-Seq experiment 2) were completed with a slightly modified protocol that included treatment in serum-free media as an effort to enhance peptide uptake. Importantly, the data from RNA-Seq experiment 2 (biological triplicate; FIG. 10) were consistent with the first series of biological replicates (RNA-Seq experiment 1; FIG. 3C-E) and in each case, repression of p53-dependent transcription by the bivalent peptide tracked with Nutlin induction levels (FIG. 9CE). Nutlin-induced activation of p53 target genes was inhibited in the presence of the bivalent peptide, providing further evidence that the bivalent peptide blocks p53 response in cells. However, the scope and magnitude of the effect was reduced in this second, independent set of RNA-Seq experiments (e.g. compare FIG. 3C, D & FIG. 10C, D). This broadly consistent but variable magnitude effect can also be seen from RNA-Seq reads at specific p53 target genes (RNA-Seq experiment 1, FIG. 4A, B; RNA-Seq experiment 2, FIG. 4C, D). The overall p53 response to Nutlin-3a was reduced in RNA Seq experiment 2 (GSEA p53 pathway NES=2.76 in RNA-Seq experiment 1 vs. NES=1.59 in RNASeq experiment 2), which therefore reduced the transcriptional impact of the bivalent peptide. However, we cannot rule out variable cellular uptake of the bivalent peptide as a contributing factor.\nElectroporation of bivalent peptide into HCT116 cells (RNA-Seq experiment 1): Two 6-well plates (HCT116 cells) were grown to about 80% confluency. Cells were then trypsinized, washed with PBS, and resuspended in 150 μL Neon Buffer R. The cells were then split into two groups: No peptide and 10 μM peptide. The cells were then drawn into a 10 μL Neon pipet tip, electroporated and ejected into 2 mL of McCoy's 5A media without antibiotic. For each experiment, two cell electroporation aliquots were added to media containing either 0.1% DMSO (control) or 10 μM Nutlin-3a (in DMSO, to a final concentration of 0.1%). For wells containing cells electroporated with peptide, an additional 200 nM peptide was added to the well to allow for peptide uptake during the experiment. The 6-well plate was then placed back at 37° C. for 3 hours. After 3 hours, cells were scraped from the plates, transferred to a 15 mL conical vial, pelleted at 1,000×g, and washed in 10 mL phosphate buffered saline (PBS) solution. To isolate the nuclei, cells were resuspended in 10 mL lysis buffer (10 mM Tris-HCl, pH 7.4, 2 mM MgCl2, 3 mM CaCl2), 0.5% NP-40, 10% glycerol) and thoroughly mixed. The nuclei were spun down at 1,000×g for 10 minutes, the lysis buffer was removed, and 1 mL of TRIzol was added. The nuclear RNA was isolated as described in the TRIzol instructions, except an additional phenol/chloroform extraction and chloroform-only extraction were performed to reduce contaminants. RNA was precipitated and washed twice with 75% ethanol to further remove contaminants. The RNA was then converted to cDNA using the High Capacity cDNA kit from Thermo Fisher Scientific. […]"}, "cells": {"test_system": "cells", "settings": "prior analysis; cited from earlier work"}, "[3]": {"target": "human Mediator complex (human)"}},
  "note": "Bridge positions count the residues as written; N and C are the ends. Square brackets hold non-standard residues; d marks the D form. Peptide text beside a SMILES is read from it. R8 = C=CCCCCCC[C@@](C)(N)C(=O)O; S5 = C=CCCC[C@](C)(N)C(=O)O",
  "data": [
    {"molecule": "BP1.5: N-acetylated hydrocarbon-stapled penta-arg p53AD1 mimic, SEQ ID NO. 5 RRETFZDRWKRLXRN", "values": [
      {"measurement": "effect on basal transcription, initial screen", "setting": "basal transcription; 5 μM peptide", "value": "did not affect basal transcription"},
      {"measurement": "effect on basal transcription, follow-up experiments", "setting": "basal transcription", "value": "negatively affected basal transcription to some degree"}
    ]},
    {"molecule": "COc1ccc(C2=N[C@@H](c3ccc(Cl)cc3)[C@@H](c3ccc(Cl)cc3)N2C(=O)N2CCNC(=O)C2)c(OC(C)C)c1", "note": "[Nutlin-3a, reference compound]", "values": [
      {"measurement": "pol II occupancy at the p21 locus", "setting": "[1]", "value": "strongly induced pol II at the p21 locus"},
      {"measurement": "expression of p53 target genes", "setting": "[2]; Nutlin-3a 10 μM, 3 h, HCT116", "value": "induced expression of p53 target genes"},
      {"measurement": "GSEA p53 pathway NES, Nutlin response without peptide", "setting": "[2]; RNA-Seq experiment 1", "value": 2.76},
      {"measurement": "GSEA p53 pathway NES, Nutlin response without peptide", "setting": "[2]; RNA-Seq experiment 2", "value": 1.59}
    ]},
    {"molecule": "CC(=O)N[C@@H](CCCNC(=N)N)C(=O)N[C@@H](CO)C(=O)N[C@@H](CCC(N)=O)C(=O)N[C@@H](CCC(=O)O)C(=O)N[C@@H](CCCNC(=N)N)C(=O)N[C@@H](Cc1ccccc1)C(=O)N[C@]1(C)CCCCCCC=CCCC[C@@](C)(C(=O)N[C@@H](CCCNC(=N)N)C(=O)N[C@@H](CCCNC(=N)N)C(N)=O)NC(=O)[C@H](CC(C)C)NC(=O)[C@H](CCCNC(=N)N)NC(=O)[C@H](CCCCN)NC(=O)[C@H](Cc2c[nH]c3ccccc23)NC(=O)[C@H](CC(C)C)NC(=O)[C@H](CC(=O)O)NC1=O", "note": "[BP1.4] (Ac-RSQERF[R8]DLWKRL[S5]RR-NH2; staple 7-14; C-terminus assumed)", "values": [
      {"measurement": "cellular uptake", "setting": "cells", "value": "not effectively taken up by cells"}
    ]},
    {"molecule": "GST-VP16AD (residues 411-490) (from UniProt P08515 1-218; P06492 411-490)", "values": [
      {"measurement": "fold change of Mediator-bound VP16 with bivalent peptide vs. without", "setting": "[3]", "value": 1.67, "unit": "fold"}
    ]}
  ]
}
